# Assay results reported in patent US8084649B2, “Herbicides” (Syngenta Crop Protection, inc., priority 2007, dated 2011).
# What was measured:
# Format in all cases: in vivo
# Avena fatua (AVEFA) [1] = assay: Post-emergence herbicidal activity, glasshouse pot test; conditions: Avena fatua, evaluated after 14 or 15 days, read-out: Post-emergence activity, AVEFA (100=total damage to plant; 0=no damage to plant); for pest or weed control at 125 g/ha: rate 125 g/ha
# Experimental: (§1) Monocotyledonous and dicotyledonous test plants were sown in sterilised standard soil in pots. After cultivation for one day (pre-emergence) or after 10 days cultivation (post-emergence) under controlled conditions in a glasshouse, the plants were sprayed with an aqueous spray solution derived from the formulation of the technical active ingredient in 0.6 ml acetone and 45 ml formulation solution containing 10.6% Emulsogen EL (Registry number 61791-12-6), 42.2% N-methylpyrrolidone, 42.2% dipropylene glycol monomethyl ether (Registry number 34590-94-8) and 0.2% X-77 (Registry number 11097-66-8). The test plants were then grown in a greenhouse under optimum conditions until, 14 or 15 days later for post-emergence and 20 days for pre-emergence, the test was evaluated (100=total damage to plant; 0=no damage to plant). Alopecurus myosuroides (ALOMY), Avena fatua (AVEFA), Lolium perenne (LOLPE), Setaria faberi (SETFA), Digitaria sanguinalis (DIGSA), Echinochloa crus-galli (ECHCG) Post-Emergence Activity
# Lolium perenne (LOLPE) [2] = assay: as above; conditions: Lolium perenne, evaluated after 14 or 15 days, read-out: Post-emergence activity, LOLPE (100=total damage to plant; 0=no damage to plant); for pest or weed control at 125 g/ha: rate 125 g/ha
# Experimental: as §1
# [3] = system: Digitaria sanguinalis (DIGSA); assay: as above; conditions: Digitaria sanguinalis, evaluated after 14 or 15 days, read-out: Post-emergence activity, DIGSA (100=total damage to plant; 0=no damage to plant); for pest or weed control at 125 g/ha: rate 125 g/ha
# Experimental: as §1
# [4] = system: Alopecurus myosuroides (ALOMY); assay: as above; conditions: Alopecurus myosuroides, evaluated after 14 or 15 days, read-out: Post-emergence activity, ALOMY (100=total damage to plant; 0=no damage to plant); for pest or weed control at 125 g/ha: rate 125 g/ha
# Experimental: as §1
# Setaria faberi (SETFA) [5] = assay: as above; conditions: Setaria faberi, evaluated after 14 or 15 days, read-out: Post-emergence activity, SETFA (100=total damage to plant; 0=no damage to plant); for pest or weed control at 125 g/ha: rate 125 g/ha
# Experimental: as §1
# [6] = system: Echinochloa crus-galli (ECHCG); assay: as above; conditions: Echinochloa crus-galli, evaluated after 14 or 15 days, read-out: Post-emergence activity, ECHCG (100=total damage to plant; 0=no damage to plant); for pest or weed control at 125 g/ha: rate 125 g/ha
# Experimental: as §1
# Avena fatua (AVEFA) [7] = assay: Pre-emergence herbicidal activity, glasshouse pot test; conditions: Avena fatua, 480 h, rate 500 g/ha, evaluated after 20 days, read-out: Pre-emergence activity, AVEFA (100=total damage to plant; 0=no damage to plant)
# Experimental: as §1, with “Pre-Emergence” for “Post-Emergence”
# Lolium perenne (LOLPE) [8] = assay: as above; conditions: Lolium perenne, 480 h, rate 500 g/ha, evaluated after 20 days, read-out: Pre-emergence activity, LOLPE (100=total damage to plant; 0=no damage to plant)
# Experimental: as §1, with “Pre-Emergence” for “Post-Emergence”
# [9] = system: Alopecurus myosuroides (ALOMY); assay: as above; conditions: Alopecurus myosuroides, 480 h, rate 500 g/ha, evaluated after 20 days, read-out: Pre-emergence activity, ALOMY (100=total damage to plant; 0=no damage to plant)
# Experimental: as §1, with “Pre-Emergence” for “Post-Emergence”
# Setaria faberi (SETFA) [10] = assay: as above; conditions: Setaria faberi, 480 h, rate 500 g/ha, evaluated after 20 days, read-out: Pre-emergence activity, SETFA (100=total damage to plant; 0=no damage to plant)
# Experimental: as §1, with “Pre-Emergence” for “Post-Emergence”
# [11] = system: Echinochloa crus-galli (ECHCG); assay: as above; conditions: Echinochloa crus-galli, 480 h, rate 500 g/ha, evaluated after 20 days, read-out: Pre-emergence activity, ECHCG (100=total damage to plant; 0=no damage to plant)
# Experimental: as §1, with “Pre-Emergence” for “Post-Emergence”
# [12] = system: Digitaria sanguinalis (DIGSA); assay: as above; conditions: Digitaria sanguinalis, 480 h, rate 500 g/ha, evaluated after 20 days, read-out: Pre-emergence activity, DIGSA (100=total damage to plant; 0=no damage to plant)
# Experimental: as §1, with “Pre-Emergence” for “Post-Emergence”
Structure (SMILES),pest or weed control at 125 g/ha (Avena fatua (AVEFA) [1]) [%],pest or weed control at 125 g/ha (Lolium perenne (LOLPE) [2]) [%],pest or weed control at 125 g/ha [3] [%],pest or weed control at 125 g/ha [4] [%],pest or weed control at 125 g/ha (Setaria faberi (SETFA) [5]) [%],pest or weed control at 125 g/ha [6] [%],pest or weed control at 500 g/ha (Avena fatua (AVEFA) [7]) [%],pest or weed control at 500 g/ha (Lolium perenne (LOLPE) [8]) [%],pest or weed control at 500 g/ha [9] [%],pest or weed control at 500 g/ha (Setaria faberi (SETFA) [10]) [%],pest or weed control at 500 g/ha [11] [%],pest or weed control at 500 g/ha [12] [%],pest or weed control at 500 g/ha (Avena fatua (AVEFA) [1]; rate 500 g/ha) [%],pest or weed control at 500 g/ha (Lolium perenne (LOLPE) [2]; rate 500 g/ha) [%],pest or weed control at 500 g/ha ([3]; rate 500 g/ha) [%],pest or weed control at 500 g/ha ([4]; rate 500 g/ha) [%],pest or weed control at 500 g/ha (Setaria faberi (SETFA) [5]; rate 500 g/ha) [%],pest or weed control at 500 g/ha ([6]; rate 500 g/ha) [%]
C=CCOC1=C(c2c(CC)cc(C)cc2CC)C(=O)CC2(CCOCC2)C1 [Compound P34],0,0,30,0,0,0,70,100,100,30,30,,,,,,,
CCOCOC1=C(c2c(CC)cc(C)cc2CC)C(=O)CC2(CCOCC2)C1 [Compound P35],100,90,50,100,50,100,100,100,100,100,,,,,,,,
CCCOC1=C(c2c(CC)cc(C)cc2CC)C(=O)CC2(CCOCC2)C1 [Compound P41],10,0,50,10,0,,10,0,70,10,40,90,,,,,,
CCCCCCCCCCCCCC(=O)OC1=C(c2c(CC)cc(C)cc2CC)C(=O)CC2(CCOCC2)C1 [Compound P42],40,50,30,60,50,30,90,100,100,,100,,,,,,,
CCCCCCCCCC(=O)OC1=C(c2c(CC)cc(C)cc2CC)C(=O)CC2(CCOCC2)C1 [Compound P43],100,80,70,100,70,70,100,100,100,,100,,,,,,,
CCc1cc(C)cc(CC)c1C1=C(O)CC(C2CCCO2)CC1=O (stereo not drawn) [Compound T8],,,,,,,80,100,100,100,100,,90,100,90,100,90,100
